From patent US20220105157A1, “Compositions and Methods for Promoting Angiogenesis in the Eye” (The Regents of the University of California, priority 2019, published 2022)

How the values were obtained:
[1] = system: BAE cells; test: Gene and protein expression in LIF-treated BAE cells (RNA-seq, qRT-PCR, cathepsin L ELISA); format: cell-based, bovine
Description: VEGF and LIF levels in LN-229 CM samples were determined by a human VEGF ELISA kit (R&D Systems, CAT #DVE00) and a human LIF ELISA kit (Biolegend, CAT #443507) according to manufacturers' instructions, respectively. Cathepsin L levels in BAE cells were measured using a bovine cathepsin L ELISA kit (MyBioSource, Inc, CAT #MBS2887609) per manufacturer's instructions.
BCE and BAE cells, after the indicated treatments, were lysed with Trizol reagent (Invitrogen, CAT #15596026) and subjected to RNA extraction following manufacturer's instructions. RNA concentrations were determined with Nanodrop 2000 (ThermoFisher Scientific) and 1 μg of total RNAs were reverse-transcribed to cDNAs using the High-Capacity cDNA Reverse Transcription Kit (Applied Biosystems, CAT #4368814). Equal amounts (generally 10 ng/reaction) of cDNAs were subjected to qRT-PCR analyses using the TaqMan Fast Advanced Master Mix (Applied Biosystems, CAT #4444557) and the ViiA7 Real-time PCR system. Relative mRNA levels of the examined genes were normalized to the internal control RPLP0 (Ribosomal Protein Lateral Stalk Subunit P0), determined by comparing with control sample group, and reported as fold changes. TaqMan gene expression assay probes were used: bovine RPLP0 (Bt03218086_ml), bovine STAT3 (Bt03259865_ml), bovine CTSL1 (Bt03257307_ml and Bt03257309_ml), bovine CTSB (Bt03259161_ml), bovine MYC (Bt03260377_ml), bovine JunB (Bt03246919_s1), bovine CCNA2 (Bt03240503_g1), bovine CCNB1 (Bt03237853_g1), and bovine PIM1 (Bt03212957_ml). The experiment was carried out in triplicate and repeated three times.

[2] = system: phosphorylation of STAT3, ERK and AKT in BCE cells; test: Western blotting of LIF signaling in BCE cells; format: cell-based, bovine; details: LIF treatment for 15 minutes
Description: BCE and BAE cells were cultured in growth medium overnight. Growth medium was removed and then cells were washed twice with PBS. Recombinant human LIF was added to cells for 15 minutes, following 3-hour incubation in the following medium: DMEM-low glucose supplemented with 10% BCS, 2 mM glutamine and antibiotics for BCE cells, and DMEM-low glucose supplemented with 1% BCS and antibiotics for BAE cells. […] Cells were then lysed with RIPA lysis buffer (Life Technologies, CAT #89901) plus protease and phosphatase inhibitor cocktail (ThermoFisher Scientific CAT #78440). Protein concentrations in cell lysates were measured with the BCA assay (ThermoFisher Scientific CAT #23227). Equal amount of proteins were subjected to electrophoresis in NuPAGE 4-12% Bis-Tris gels (ThermoFisher Scientific, CAT #NW04125BOX) and then transferred onto PVDF membranes. Membranes were blocked with 5% non-fat milk in TBST at room temperature for 1 hour, incubated with primary antibodies indicated below in TBST containing 0.5% non-fat milk at 4° C. overnight then with secondary HRP-conjugated antibodies (1:2000, GE Healthcare) at room temperature for 1 h. Signals were developed with SuperSignal™ West Pico PLUS Chemiluminescent Substrate (ThermoFisher Scientific). Primary antibodies used: anti-phospho-STAT3 (Cell Signaling, CAT #9131, 1:3000), anti-STAT3 (Cell Signaling, CAT #4904, 1:3000), anti-phospho-ERK (Cell Signaling, CAT #4376, 1:5000), anti-ERK (Cell Signaling, CAT #4695, 1:5000), anti-phospho-AKT Ser473 (Cell Signaling, CAT #4060, 1:2000), anti-AKT (Cell Signaling, CAT #4691, 1:2000) and HRP-conjugated anti-beta-actin (Sigma, CAT #AC-15, 1; 10000).

[3] = system: choroid capillaries of NaIO3-treated mice; test: Sodium iodate (NaIO3) model, choroid capillary recovery; format: in vivo, mouse; details: NaIO3 20 mg/kg i.v.; intravitreal LIF 50 ng, CT-1 different doses, OSM 10 ng; OCT-A
Description: Eight-week-old C57BL/6J mice were anesthetized with ketamine/xylazine cocktail. Sterilized NaIO3 was administered as a single intravenous injection (20 mg/kg body weight) (28) (29). Control mice were injected with PBS. PBS, LIF (50 ng), CT-1 (different doses) or OSM (10 ng) was injected intravitreally in five-mice groups. Five, seven and nine days after injection, choroid capillaries were monitored by OCT-A system. 9 days after injection, mice were killed and eyes were harvested for H&E and immunofluorescent staining. Avascular area in choroid capillaries was analyzed using ImageJ.

LIF: recombinant human leukemia inhibitory factor, a member of the IL-6 family of cytokines
upregulation of IGFBP3 ([1]; BAE cells incubated with LIF for 6 hours, RNA-seq, confirmed by qRT-PCR): approximately 8 fold | cyclin A/B expression ([1]; BAE cells, LIF 10 ng/ml 24 hours, qRT-PCR): downregulation | CTSB (cathepsin B) levels ([1]; BAE cells, LIF 24 hours): not CTSB | CTSL (cathepsin L) mRNA and protein levels ([1]; BAE cells, LIF 24 hours): dramatically upregulated | PIM1 expression ([1]; BAE cells, LIF treatment): induction | AKT phosphorylation [2]: little effects | phosphorylation of ERK [2]: elicited phosphorylation | phosphorylation of STAT3 [2]: elicited phosphorylation | avascular areas in choroid compared to PBS group [3]: reduced avascular areas
